Columns and labels:
Tetranychus urticae = assay: Effectiveness against Tetranychus urticae (common bean leaf, wettable powder drug solution); format: in vivo; settings: adult female Tetranychus urticae resistant to organophosphorus pesticides; 125 ppm; examined 3 days after the application; 25° C., 65% humidity
Panonychus citri = assay: Effectiveness against Panonychus citri (mandarin orange leaf, emulsion applied with rotary spreading tower); format: in vivo; settings: adult female Panonychus citri; 125 ppm; adults removed 3 days after the application; whether eggs could grow to adults examined on the 11th day
Experimental: 10 adult female Panonychus citri were inoculated on the leaf of a mandarin orange, which was placed in a petri dish. After the inoculation, the drug solution, which was prepared by following the method of the emulsion shown in Example 2 of the drugs and by diluting with water to achieve the compound concentration of 125 ppm, was applied using a rotary spreading tower. The dish was placed in a temperature-controlled room where the temperature and humidity were set to 25° C. and 65% respectively, adults were removed 3 days after the application, and whether eggs laid during these 3 days could grow to become adults was examined on the 11th day.

## FC(F)(F)c1ccc(OC2CC3CCC(C2)N3c2ccc(C(F)(F)F)cn2)nc1 (stereo not drawn) [Compound 2-3, 3α-(5-trifluoromethyl-2-pyridyloxy)-8-(5-trifluoromethyl-pyridine-2-yl)-8-azabicyclo[3.2.1]octane]
Tetranychus urticae
  insecticidal rate (adulticidal rate): 100%

## CCCOc1cc(C(F)(F)F)ccc1OC1CC2CCC(C1)N2c1ccc(C(F)(F)F)c(F)c1 (stereo not drawn) [Compound 4-70]
Tetranychus urticae
  insecticidal rate (adulticidal rate): 100%
Panonychus citri
  insecticidal rate: 100%
